Source: patent publication US12479830B2, “Homopiperazinyl and homopiperidinyl quinazolin-4(3H)-one derivatives having multimodal activity against pain” (ESTEVE PHARMACEUTICALS, S.A., priority 2019, dated 2025)

Assays:
[1] = biological target: Human α2δ-1 subunit of Cav2.2 calcium channel (Homo sapiens, UniProt P54289); assay: Human α2δ-1 subunit of Cav2.2 calcium channel assay ([3H]-gabapentin binding); conditions: binding to the α2δ-1 subunit of voltage-gated calcium channels, expressed as Ki class; + also covers inhibition between 1% and 50%
Human α2δ-1 subunit of Cav2.2 calcium channel, sequence (P54289 25-1103): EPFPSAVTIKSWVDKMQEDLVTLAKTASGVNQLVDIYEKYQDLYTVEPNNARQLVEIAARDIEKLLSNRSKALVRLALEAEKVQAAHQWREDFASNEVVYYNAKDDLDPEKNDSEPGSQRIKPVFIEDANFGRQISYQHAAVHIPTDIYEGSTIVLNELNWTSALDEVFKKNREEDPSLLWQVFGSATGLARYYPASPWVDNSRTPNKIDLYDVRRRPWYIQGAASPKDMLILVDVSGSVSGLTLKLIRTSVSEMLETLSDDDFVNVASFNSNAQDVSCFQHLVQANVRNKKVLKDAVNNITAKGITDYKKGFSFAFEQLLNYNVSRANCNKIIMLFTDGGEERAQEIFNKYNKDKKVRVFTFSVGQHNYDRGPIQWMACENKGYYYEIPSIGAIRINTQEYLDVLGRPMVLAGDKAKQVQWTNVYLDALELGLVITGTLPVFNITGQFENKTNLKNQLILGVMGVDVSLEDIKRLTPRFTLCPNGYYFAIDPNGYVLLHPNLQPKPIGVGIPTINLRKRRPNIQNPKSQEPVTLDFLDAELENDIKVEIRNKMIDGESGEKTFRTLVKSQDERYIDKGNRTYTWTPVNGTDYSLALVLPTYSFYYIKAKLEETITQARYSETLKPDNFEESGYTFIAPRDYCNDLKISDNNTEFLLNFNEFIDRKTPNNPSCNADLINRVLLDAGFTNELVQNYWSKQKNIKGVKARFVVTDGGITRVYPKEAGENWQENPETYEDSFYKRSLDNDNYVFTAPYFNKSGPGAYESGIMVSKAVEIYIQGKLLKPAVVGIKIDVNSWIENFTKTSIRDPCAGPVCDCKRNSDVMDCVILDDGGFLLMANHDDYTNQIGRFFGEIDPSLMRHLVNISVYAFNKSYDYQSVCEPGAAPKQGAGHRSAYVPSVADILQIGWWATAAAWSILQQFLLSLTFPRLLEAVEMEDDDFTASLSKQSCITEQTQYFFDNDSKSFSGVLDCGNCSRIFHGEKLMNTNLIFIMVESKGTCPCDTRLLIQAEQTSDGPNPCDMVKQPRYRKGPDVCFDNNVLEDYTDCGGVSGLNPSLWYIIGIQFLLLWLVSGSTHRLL
Summary of the method: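 Affinity (Ki, five concentrations) or % inhibition at 1 or 10 μM, from displacement of 15 nM [3H]-gabapentin on human α2δ-1 membranes. Incubation 60 min, 27° C., Hepes-KOH 10 mM pH 7.4; 10 μM pregabalin defined non-specific binding; bound radioactivity counted after GF/C filtration.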

Human σ1 receptor = biological target: T1, Human σ1 receptor (Homo sapiens, UniProt Q99720); assay: Human σ1 receptor radioligand assay ([3H](+)-pentazocine binding); conditions: binding to the σ1 receptor, expressed as Ki class; + also covers inhibition between 1% and 50%
T1 construct: expressed in transfected cells; host or cells: HEK-293
T1 sequence (Q99720 whole entry): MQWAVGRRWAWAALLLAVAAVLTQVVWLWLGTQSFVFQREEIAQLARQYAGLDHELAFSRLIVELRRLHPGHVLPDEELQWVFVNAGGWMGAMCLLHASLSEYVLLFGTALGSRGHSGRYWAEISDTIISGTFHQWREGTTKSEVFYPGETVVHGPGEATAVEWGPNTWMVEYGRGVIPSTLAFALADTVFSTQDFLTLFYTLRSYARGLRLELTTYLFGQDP
Summary of the method: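 Ki was derived from five test concentrations, or % inhibition was measured at a single 1 or 10 μM dose, against 5 nM [3H](+)-pentazocine. Incubation was 120 min at 37° C in 50 mM Tris-HCl pH 8 with 7 μg HEK-293 membranes, and 10 μM haloperidol set non-specific binding. Bound radioactivity was counted after filtration.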

SMILES	Ki [1]	Ki (Human σ1 receptor)
CCCC(c1nc2ccc(CC)cc2c(=O)n1CC)N1CCCN(C)CC1 (stereo not drawn) [Example 205, 3,6-diethyl-2-(1-(4-methyl-1,4-diazepan-1-yl)butyl)quinazolin-4(3H)-one]	< 0.5 µM	> 1 µM
CCC[C@H](c1nc2ccc(Cl)cc2c(=O)n1C)N1CCCN[C@@H](C)C1 [Example 148, 6-chloro-3-methyl-2-((R)-1-((S)-3-methyl-1,4-diazepan-1-yl)butyl)quinazolin-4(3H)-one]	< 0.5 µM	> 1 µM
CCC[C@H](c1nc2ccc(F)cc2c(=O)n1CC1CC1)N1CCCN(CC)CC1 [Example 218, (R)-3-(cyclopropylmethyl)-2-(1-(4-ethyl-1,4-diazepan-1-yl)butyl)-6-fluoroquinazolin-4(3H)-one]	< 0.5 µM	< 0.5 µM
CCCC(c1nc2ccc(F)cc2c(=O)n1CC)C1CCCN(CC)CC1 (stereo not drawn) [Example 268, 3-ethyl-2-(1-(1-ethylazepan-4-yl)butyl)-6-fluoroquinazolin-4(3H)-one]	0.5 to 5 µM	< 0.5 µM
CCC[C@H](c1nc2cc(OC)c(F)cc2c(=O)n1CC)N1CCCN(CC)CC1 [Example 231, (R)-3-ethyl-2-(1-(4-ethyl-1,4-diazepan-1-yl)butyl)-6-fluoro-7-methoxyquinazolin-4(3H)-one]	< 0.5 µM	0.5 to 1 µM
CCC[C@@H](c1nc2cc(Cl)c(Cl)cc2c(=O)n1CC)N1CCN(C)C[C@H](C)C1 [Example 133, 6,7-dichloro-2-((S)-1-((S)-4,6-dimethyl-1,4-diazepan-1-yl)butyl)-3-ethylquinazolin-4(3H)-one]	> 5 µM	> 1 µM
CCCC(c1nc2ccc(Cl)cc2c(=O)n1CC)N1CCCNCC1 (stereo not drawn) [Example 22, 2-(1-(1,4-diazepan-1-yl)butyl)-6-chloro-3-ethylquinazolin-4(3H)-one]	< 0.5 µM	> 1 µM
CCC[C@H](c1nc2ncc(F)cc2c(=O)n1CC1CC1)N1CCN[C@H](C)CC1 [Example 196, 3-(cyclopropylmethyl)-6-fluoro-2-((R)-1-((R)-5-methyl-1,4-diazepan-1-yl)butyl)pyrido[2,3-d]pyrimidin-4(3H)-one]	< 0.5 µM	> 1 µM
CCCC(c1nc2ccc(I)cc2c(=O)n1CC)N1CCCN(C)CC1 (stereo not drawn) [Example 12, 3-ethyl-6-iodo-2-(1-(4-methyl-1,4-diazepan-1-yl)butyl)quinazolin-4(3H)-one]	< 0.5 µM	< 0.5 µM
CCCC(c1nc2cc(F)c(F)cc2c(=O)n1CC)N1CCCNCC1 (stereo not drawn) [Example 45, 2-(1-(1,4-diazepan-1-yl)butyl)-3-ethyl-6,7-difluoroquinazolin-4(3H)-one]	< 0.5 µM	> 1 µM
CCC[C@H](c1nc2c(F)cccc2c(=O)n1CC)N1CCCN(C)CC1 [Example 248, (R)-3-ethyl-8-fluoro-2-(1-(4-methyl-1,4-diazepan-1-yl)butyl)quinazolin-4(3H)-one]	< 0.5 µM	> 1 µM
CCCC(c1nc2cccnc2c(=O)n1CC)N1CCCNCC1 (stereo not drawn) [Example 100, 2-(1-(1,4-diazepan-1-yl)butyl)-3-ethylpyrido[3,2-d]pyrimidin-4(3H)-one]	> 5 µM	> 1 µM
CCCC(c1nc2cc(F)c(Cl)cc2c(=O)n1CC)N1CCCNCC1 (stereo not drawn) [Example 90, 2-(1-(1,4-diazepan-1-yl)butyl)-6-chloro-3-ethyl-7-fluoroquinazolin-4(3H)-one]	< 0.5 µM	> 1 µM
CCC[C@H](c1nc2ccc(F)cc2c(=O)n1CC)N1CCCN[C@@H](C)C1 [Example 145, 3-ethyl-6-fluoro-2-((R)-1-((S)-3-methyl-1,4-diazepan-1-yl)butyl)quinazolin-4(3H)-one]	< 0.5 µM	> 1 µM
CCCC(c1nc2ccc(Br)c(C)c2c(=O)n1CC)N1CCCN(C)CC1 (stereo not drawn) [Example 24, 6-bromo-3-ethyl-5-methyl-2-(1-(4-methyl-1,4-diazepan-1-yl)butyl)quinazolin-4(3H)-one]	0.5 to 5 µM	< 0.5 µM
CCC[C@@H](c1nc2cc(F)c(Br)cc2c(=O)n1CC)N1CCCNCC1 [Example 158, (S)-2-(1-(1,4-diazepan-1-yl)butyl)-6-bromo-3-ethyl-7-fluoroquinazolin-4(3H)-one]	> 5 µM	> 1 µM
CCCC(c1nc2ccc(O)cc2c(=O)n1CC)N1CCCN(C)CC1 (stereo not drawn) [Example 203, 3-Ethyl-6-hydroxy-2-(1-(4-methyl-1,4-diazepan-1-yl)butyl)quinazolin-4(3H)-one]	< 0.5 µM	> 1 µM
CCC[C@@H](c1nc2ccc(Cl)cc2c(=O)n1CCC)N1CCCN(C)CC1 [Example 160, (S)-6-chloro-2-(1-(4-methyl-1,4-diazepan-1-yl)butyl)-3-propylquinazolin-4(3H)-one]	> 5 µM	> 1 µM

SMILES	Ki [1]	Ki (Human σ1 receptor)
CCC[C@@H](c1nc2ccc(Br)cc2c(=O)n1CC)N1CCN(C)C[C@H](CO)C1 [Example 126, 6-bromo-3-ethyl-2-((S)-1-((S)-6-(hydroxymethyl)-4-methyl-1,4-diazepan-1-yl)butyl)quinazolin-4(3H)-one]	0.5 to 5 µM	0.5 to 1 µM
CCC[C@@H](c1nc2ccc(Cl)cc2c(=O)n1CC)N1CCN(C)C[C@@H](C)C1 [Example 74, 6-chloro-2-((S)-1-((R)-4,6-dimethyl-1,4-diazepan-1-yl)butyl)-3-ethylquinazolin-4(3H)-one]	> 5 µM	> 1 µM
CCC[C@H](c1nc2ccc(F)cc2c(=O)n1CC)N1CCCN(C)CC1 [Example 209, (R)-3-Ethyl-6-fluoro-2-(1-(4-methyl-1,4-diazepan-1-yl)butyl)quinazolin-4(3H)-one]	< 0.5 µM	< 0.5 µM
CCC[C@H](c1nc2ncc(Br)cc2c(=O)n1CC)N1CCCN(CC)CC1 [Example 176, 6-bromo-3-ethyl-2-(1-(4-ethyl-1,4-diazepan-1-yl)butyl)pyrido[2,3-d]pyrimidin-4(3H)-one]	> 5 µM	> 1 µM
CCC[C@H](c1nc2cc(F)c(F)cc2c(=O)n1CC)N1CCCN[C@H](C)C1 [Example 261, 3-ethyl-6,7-difluoro-2-((R)-1-((R)-3-methyl-1,4-diazepan-1-yl)butyl)quinazolin-4(3H)-one]	< 0.5 µM	> 1 µM
CCCC(c1nc2ccc(Br)cc2c(=O)n1C)N1CCCN(CC)CC1 (stereo not drawn) [Example 85, 6-bromo-2-(1-(4-ethyl-1,4-diazepan-1-yl)butyl)-3-methylquinazolin-4(3H)-one]	> 5 µM	< 0.5 µM
CCC[C@H](c1nc2cc(F)c(OC)cc2c(=O)n1CC)N1CCNC[C@@H](C)C1 [Example 243, 3-ethyl-7-fluroo-6-methoxy-2-((R)-1-((R)-6-methyl-1,4-diazepan-1-yl)butyl)quinazolin-4(3H)-one]	< 0.5 µM	> 1 µM
CCC[C@H](c1nc2cc(Cl)c(Cl)cc2c(=O)n1CC)N1CCN(C)C[C@H](C)C1 [Example 131, 6,7-Dichloro-2-((R)-1-((S)-4,6-dimethyl-1,4-diazepan-1-yl)butyl)-3-ethylquinazolin-4(3H)-one]	< 0.5 µM	< 0.5 µM
CCC[C@H](c1nc2ccc(Br)cc2c(=O)n1CC)N1CCN(C)C[C@H](COC)C1 [Example 105, 6-Bromo-3-ethyl-2-((R)-1-((S)-6-(methoxymethyl)-4-methyl-1,4-diazepan-1-yl)butyl)quin-4 (3H)-one]	0.5 to 5 µM	> 1 µM
CCC[C@@H](c1nc2ccncc2c(=O)n1CC)N1CCNC[C@H](C)C1 [Example 166, 3-ethyl-2-((S)-1-((S)-6-methyl-1,4-diazepan-1-yl)butyl)pyrido[4,3-d]pyrimidin-4(3H)-one]	> 5 µM	> 1 µM
CCC[C@H](c1nc2ccc(F)cc2c(=O)n1CC)N1CCCNC(C)(C)C1 [Example 253]	> 5 µM	0.5 to 1 µM
CCCC(c1nc2ccc(Br)cc2c(=O)n1CC(C)C)N1CCCN(C)CC1 (stereo not drawn) [Example 54, 6-bromo-3-isobutyl-2-(1-(4-methyl-1,4-diazepan-1-yl)butyl)quinazolin-4(3H)-one]	< 0.5 µM	0.5 to 1 µM
CCC[C@H](c1nc2ccc(Br)cc2c(=O)n1CC)N1CCCN[C@@H](C)C1 [Example 142, 6-bromo-3-ethyl-2-((R)-1-((S)-3-methyl-1,4-diazepan-1-yl)butyl)quinazolin-4(3H)-one]	< 0.5 µM	> 1 µM
CCCC(c1nc2c(Cl)cc(F)cc2c(=O)n1CC)N1CCCN(C)CC1 (stereo not drawn) [Example 64, 8-chloro-3-ethyl-6-fluoro-2-(1-(4-methyl-1,4-diazepan-1-yl)butyl)quinazolin-4(3H)-one]	> 5 µM	> 1 µM
CCC[C@@H](c1nc2ccc(Cl)cc2c(=O)n1CC)N1CCN(C)C[C@H](C)C1 [Example 73, 6-chloro-2-((S)-1-((S)-4,6-dimethyl-1,4-diazepan-1-yl)butyl)-3-ethylquinazolin-4(3H)-one]	> 5 µM	> 1 µM
CCC[C@H](c1nc2ccc(F)cc2c(=O)n1CC)N1CCN[C@H](C)CC1 [Example 235, 3-ethyl-6-fluoro-2-((R)-1-((R)-5-methyl-1,4-diazepan-1-yl)butyl)quinazolin-4(3H)-one]	< 0.5 µM	> 1 µM
CCC[C@@H](c1nc2cc(F)c(Br)cc2c(=O)n1CC)N1CCN(C)C[C@H](C)C1 [Example 128, 6-bromo-2-((S)-1-((S)-4,6-dimethyl-1,4-diazepan-1-yl)butyl)-3-ethyl-7-fluoroquinazolin-4(3H)-one]	> 5 µM	> 1 µM
CCCC(c1nc2c(Cl)cc(F)cc2c(=O)n1CC)N1CCCN(CC)CC1 (stereo not drawn) [Example 65, 8-chloro-3-ethyl-2-(1-(4-ethyl-1,4-diazepan-1-yl)butyl)-6-fluoroquinazolin-4(3H)-one]	> 5 µM	> 1 µM
